One data set concerns the target TSPO (Homo sapiens (Human), UniProt P30536). The data set is classed as binding. How it is done: Briefly, the assay utilizes radioactive standard ligand [^3H] PK 11195 (1-(2-chlorophenyl)-N-methyl-N-(1-methyl-propyl)-3 isoquinolinecarboxamide), and measures the ability of the compounds of the invention to displace standard ligand in binding to TSPO. Total radioactive binding was determined by measuring the radioactivity of the radioactive ligand-receptor complex, obtained in the reaction of radioactive standard with the TSPO. Radioactive standard and the examined compound were added to the TSPO and after some incubation time the radioactivity of the resulting ligand-receptor complexes was measured with the help of a […]. This radioactivity indicates the binding of the radioactive standard to TSPO. […] This can be expressed as the half maximal inhibitory concentration (IC50), which is a measure of the effectiveness of a compound in inhibiting biological or biochemical function, in this case inhibiting binding of standard radioactive ligand binding to the TSPO. A derivative of the IC50 is the Ki, which is the calculated binding affinity of the novel compound to the TSPO.
Binding to TSPO was evaluated using a [^3H]PK 11195 radio-assay, as described above.

Data set [1] concerns U118MG cells. The data set is described as follows: Protection against cell death induced by glutamate in U118MG cell culture. It is filed as cell-based, human. To be noted: for Protection against glutamate-induced cell death: cell culture, grade in words; for lethal effects of compound at high concentration: 100 μM compound alone; for lethal effects of compound at high concentration / cell death effect of glutamate at high compound concentration: halogenated vs unhalogenated analog; for protection against cell death induced by glutamate: U118MG cells, 35 mM glutamate, compound 1-100 μM; for cell death effect of glutamate at high compound concentration: glutamate plus 100 μM compound. How it is done:
Cell cultures of various human glial type cell lines (T98G, U87MG, A172, U118MG), as well as human neuronal type cell lines SH-SY 5Y and Be(2)-C were used to test the new compounds. In addition, the rat glioma cell line C6 was used. PC12 cells originating from rats were used as another cell line displaying neuronal characteristics. The applicants also have produced, by genetic manipulation, a modified rat C6 glial cell strain and a modified human U118MG glial type cell strain, both under-expressing the TSPO, which allows to study TSPO specific effects, including of the compounds of the invention, which can be done according to methods described previously (Weisinger et al. Biochemistry. 2004; 43:12315-21; Levin et al. 2005; Zeno et al., 2009).
The protective capabilities of the compounds of the invention and involvement of the TSPO were tested in cell culture, using cell lines of glial and neuronal type, cultured and testing according to standard methods (Kugler et al. 2008; Zeno et al. 2009; Dadon-Nachum et al. Stem Cell Rev. 2011; 7:664-71). Furthermore, primary cell cultures are also used (Banker, G. et al. Culturing Nerve Cells, 2nd Edition, The MIT Press (1998). Treatments included: (1) exposure to glutamate (35 mM), Abeta(1-42), NH4Cl, CoCl2, and nitric oxide (NO) donors, in order to mimic particular aspects of neurodegeneration; (2) treatment with the novel compounds and with traditional TSPO ligands as comparative treatment; and (3) TSPO knockdown by genetic manipulation.
(§1) Techniques and parameters assayed are summarized here: Total protein levels (Bradford. Anal Biochem. 1976; 72:248-54); TSPO ligand binding assays (Kugler et al. 2008; Levin et al. 2005; Danovich et al. Eur Neuropsychopharmacol. 2008; 18:24-33) cell death, including apoptosis and necrosis and related molecular biological processes (Soustiel et al. Neuropathol Appl Neurobiol. 2008; 34:412-23; Soustiel et al. Exp Neurol. 2008; 214:201-8; Zeno et al. 2009); mitochondrial transmembrane potential collapse (Chelli et al. Biochem Pharmacol. 2004; 68:125-34; Kugler et al. 2008; Zeno et al., 2009; Shargorodsky et al. Apoptosis. 2012; 17:647-65), reactive oxygen species (ROS) generation as a measure of oxidative stress (Veenman et al. 2008; Zeno et al. 2009); TSPO knockdown (Levin et al. 2005; Zeno et al. 2009); expression levels of mitochondrial TSPO and associated proteins (Veenman et al. 2002; Levin et al. 2005; Veenman et al. 2008); gene expression with RT-PCR and microarray analysis (Bode et al. 2012; Veenman et al. 2012). Parameters of inflammation, immune response, migration, and the cell cycle are also tested. All these approaches can also be applied for quality control of the compounds.
The compounds of the invention protect against cell death induced by glutamate in cell culture of U118MG cells of astrocytic origin (FIGS. 1, 2, 3 and 8) or SH SY 6Y cells of neuronal origin (FIG. 4). […] In the control group, 35 mM of glutamate killed ˜60% of the cells.
The experimental setup is explained using FIG. 8B as an example: • 1. Control: Cell death levels are taken as 0% • 2. Glu: Cell death levels induced by glutamate are over 50% • 3. […] Glu+Cpd 5: When Cpd 5 is given as a treatment to counteract cell death induced by glutamate, increasing concentrations of Cpd 5 reduce cell death levels from over 50% to less than 5%.

The subject of data set [2] is R6-2 mice. Put plainly: Lifespan of R6-2 mice, transgenic model for Huntington Disease. It is filed as in vivo, mouse. To be noted: for effect on lifespan: daily s.c. injections 5 days a week from week 5, vs DMSO and saline. From the text: For the assays described herein systemic injections of kainic in rats were applied and also contusion (Veenman et al. 2002; Soustiel et al. Neuropathol Appl Neurobiol. 2008; Soustiel et al. Exp Neurol. 2008). These models present very well defined cell death in the brain. Cell death in the brain is the major pathological characteristic of progressing neurodegeneration common to brain diseases. As the compounds of the present invention are designed to prevent cell death in the brain as a consequence of disease and progressing brain damage after injury, including behavioral impairments, animal models displaying cell death in the brain are the models of choice for displaying the protective capabilities of the compounds of the invention. For these reasons the R6-2 model for Huntington Disease was chosen to test the effectiveness of Compound 1 and to compare the effectiveness of Compound 1 with those of the compound of U.S. Pat. No. 8,541,428 (Cpd A) and with the classical TSPO ligand PK 11195, as well as other compounds disclosed herein. Compounds 5 and 6 were also tested in the same R6-2 model.
R6-2 is a transgenic mouse model for Huntington Disease. Huntington Disease in humans is a hereditary neurodegenerative disease affecting motor performance and finally leading to death of the patients having the disease. R6-2 mice (˜120 CAG repeats B6CBA-Tg(HDexon1)62 Gpb/3J) mice were used for the experiments described below. For this purpose, mice obtained from the Jackson Laboratory (ME) were bred. In particular: males genotype: Hemizygous for Tg(HDexon1)62 Gpb, and females from the wildtype background strain B6CBAF1/J were bred according to the protocol of Jackson Laboratory. The male heterozygote offspring (R6-2 mice) were used for determining life span and motor activity, with and without drug treatment. Drug treatment consisted of daily (5 continuous days a week) subcutaneous injections of mice with 20 μl of: saline (sham control), vehicle DMSO (vehicle control), classic TSPO ligand PK 11195 (15 mg/kg), prior art Compound A (15 mg/kg), Compound 1 (15 mg/kg), and compound 1 (7.5 mg/kg). Drug treatment started on week 5 after birth. Quantities were used according to previous studies regarding TSPO ligands.
(§2) Apart from the behavioral experiments, mice were observed daily, and the day of death was noted. Behavioral experiments included distance covered in an open field apparatus, and tremor measurements.
R6-2 mice were used as previously described in Example 5. In one experiment, treatment consisted of daily (5 continuous days per week) subcutaneous injections of mice with 20 μl of vehicle DMSO (control, n=10) and Compound 6 (7.5 mg/kg, n=12). In a separate experiment, compound 5 (7.5 mg/kg, n=5) was tested, compared to DMSO control (n=5).

For data set [3], the system named is R6-2 mice. The data set is described as follows: Incidence of tremor in R6-2 mice. It is filed as in vivo, mouse.
Source text: as §2
To assay incidence of tremor in R6-2 mice of the experiments for this invention, the StartleMonitor of Kinder Scientific (Poway, Calif.), with specific software to assay and present force pressure changes in newtons, was used.

Data set [4] relates to U118MG cells. The data set is described as follows: Collapse of the mitochondrial membrane potential (ΔΨm) induced by glutamate. The data set is classed as cell-based, human. To be noted: glutamate exposed cells.
Source text: as §1
Compound 1 is very effective at a concentration of 25 μM in this model (in order to achieve the same effect with the classical TSPO ligand PK 11195 a concentration of 50 μM has to be applied (data not shown).

The mark [5] stands for this setting: binding affinity to the TSPO, unit given as nm.
Where [6] appears, read: displacement of [3H]PK 11195 from TSPO.

“Also recorded” adds a separate entry of the source. Where two headings read alike, the source gives them in different places.

As usually defined, the Ki is a measure of affinity in units of concentration, obtained from inhibition or displacement. Lower therefore signals higher affinity.

Chain of TSPO (P30536 whole entry): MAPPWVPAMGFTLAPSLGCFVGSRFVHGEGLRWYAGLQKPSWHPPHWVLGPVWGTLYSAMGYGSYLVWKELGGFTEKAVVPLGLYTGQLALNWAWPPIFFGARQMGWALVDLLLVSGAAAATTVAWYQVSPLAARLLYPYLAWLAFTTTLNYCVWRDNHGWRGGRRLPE

For `CCN(CC)C(=O)Oc1nc(-c2ccccc2)nc2ccccc12` [Compound 7, 2-phenylquinazolin-4-yl diethylcarbamate], the Ki at TSPO (setting [5]) and on TSPO (setting [6]) was about 2.5 nM in each case. The “Protection against glutamate-induced cell death” value with U118MG cells [1] is on record as “Good”.
At TSPO (setting [6]), `CCN(CC)C(=O)Oc1nc(-c2ccccc2Cl)nc2ccccc12` [Compound 8, 2-(2-chlorophenyl)quinazolin-4-yl diethylcarbamate] gave a Ki of about 2.5 nM. Also, in the data set on U118MG cells [1], the “lethal effects of compound at high concentration” value (“lethal effects of compound” below) was “reduces lethal effects”, the “protection against cell death induced by glutamate” value (from here on “protection … by glutamate”) was “improves protection”, the “Protection against glutamate-induced cell death” value is “Good” and the “cell death effect of glutamate at high compound concentration” value was “reduces cell death effect of glutamate in cultures even further”. Also, in the data set on U118MG cells [1] (listed as Cpd 8), the “lethal effects of compound” value was “reduces cell death effects”.
With `CN(C)C(=O)Oc1nc(-c2ccccc2)nc2ccccc12` [Compound A, reference compound], the Ki on TSPO (setting [5]) is about 600 nM. Besides, the Ki at TSPO (setting [6]) was about 600 nM. Besides, in the data set on R6-2 mice [2], the effect on lifespan result is recorded as “indistinguishable from vehicle treated mice; also recorded: had no such effects; also recorded: has no effect”. Also, in the data set on U118MG cells [1], the “protection … by glutamate” value is reported as “significantly less efficacious” and the “Protection against glutamate-induced cell death” value is on record as “Good”.
In the case of `CN(C)C(=O)Oc1nc(-c2ccccc2Cl)nc2ccccc12` [Compound 5, 2-(2-chlorophenyl)quinazolin-4-yl dimethylcarbamate], the Ki at TSPO (setting [6]) was about 600 nM. The “mice living up to 18 weeks” value in the data set on R6-2 mice [2] (7.5 mg/kg s.c.) stood at 20%. Moreover, the “mice still alive at 11th week” value in the data set with R6-2 mice [2] (7.5 mg/kg s.c., >50% of DMSO mice dead) was 100%. Further, in the data set on R6-2 mice [2] (7.5 mg/kg s.c., all DMSO mice dead), the “mice still alive at 12 weeks” value was 50%. Besides, the effect on lifespan entry in the data set on R6-2 mice [2] is “increase the average lifespan; also recorded: extends the life span”. In addition, the effect on lifespan entry in the data set on R6-2 mice [2] (listed as compound 5) was “robust lifespan enhancing”. In the data set with U118MG cells [1], the “lethal effects of compound” value is “reduces lethal effects; also recorded: reduces cell death effects; also recorded: least adverse side effects”; the “protection … by glutamate” value is “protect better and more consistently; also recorded: superior over the rest of the compounds”; the “Protection against glutamate-induced cell death” value is given as “Excellent”; the “cell death effect of glutamate at high compound concentration” value is listed as “reduces cell death effect of glutamate in cultures even further”. Besides, the “protection … by glutamate” value in the data set with U118MG cells [1] (listed as Cpd 5) is on record as “improves protection”. For the same compound, in the data set with U118MG cells [1] (compound alone, no glutamate), the “cell death levels induced by compound by itself” value is listed as at most 5%. The “cell death levels, Glu + compound” value with U118MG cells [1] (glutamate plus increasing concentrations of compound, glutamate alone over 50%) is reported as “less than 5%”. Moreover, in the data set on R6-2 mice [3], the “incidence of tremor activity” value is “tremor reducing effects; also recorded: reduced the incidence of tremor activity”.
`CCN(CC)C(=O)Oc1nc(-c2c(Cl)cccc2Cl)nc2ccccc12` [Compound 3, 2-(2,6-dichlorophenyl)quinazolin-4-yl diethylcarbamate] yielded a Ki on TSPO (setting [6]) of about 1510 nM. Besides, in the data set on U118MG cells [1], the “protection … by glutamate” value is “good protective properties” and the “Protection against glutamate-induced cell death” value was “Good”. Moreover, in the data set on U118MG cells [1] (listed as compound 3), the “protection … by glutamate” value is “protective properties”.
On to `CCN(CC)C(=O)Oc1nc(-c2ccc(F)c(Cl)c2)nc2ccccc12` [Compound 2, 2-(3-chloro-4-fluorophenyl)quinazolin-4-yl diethylcarbamate], for which the Ki on TSPO (setting [6]) is about 380 nM. Besides, in the data set on U118MG cells [1], the “protection … by glutamate” value is reported as “strong protective properties” and the “Protection against glutamate-induced cell death” value is listed as “Good”. For the same compound, the “protection … by glutamate” value in the data set on U118MG cells [1] (listed as compound 2) is “protective properties”.
In the case of `CCC(C)N(C)C(=O)c1cc2ccccc2c(-c2ccccc2Cl)n1` (centres unmarked) [PK 11195, 1-(2-chlorophenyl)-N-methyl-N-(1-methyl-propyl)-3 isoquinolinecarboxamide, reference compound], the effect on lifespan result with R6-2 mice [2] was “indistinguishable from vehicle; also recorded: had no such effects; also recorded: has no effect at all”. The “concentration very effective in preventing ΔΨm collapse” value with U118MG cells [4] is 50 µM.

The values are drawn from patent publication US10035780B2, “Quinazoline scaffold based compounds, pharmaceutical compositions and methods of use thereof” (TECHNION RESEARCH & DEVELOPMENT FOUNDATION LTD., priority 2014, dated 2018).
